Measurements taken from patent publication US20100255580A1, “Differentiation of Human Embryonic Stem Cells” (LIFESCCAN, INC., priority 2007, published 2010).

System: H9 embryonic stem cells
Type: cell-based, human
Settings: low serum, on MEFS
Description: Controls for each group included cells plated on […]-coated dishes and cultured in MEF-conditioned medium or cells plated on MEFs and cultured in ES medium. All groups contained three biological replicates and each biological replicate was repeated on two separate gene chips.
Sample preparation, hybridization, and image analysis were performed according to the Affymetrix Human Genome U133 Plus 2.0 Array. Following normalization and a log transformation, data analysis was performed using OmniViz® software (MA) and […] (VizXLabs, WA). Significant differences in gene expression between the samples were evaluated using analysis of variance and an F-test with adjusted P-value (Benjamini and
Hochberg correction) of ≦b 0.05. Only genes with a present call in at least one group were included in the analysis.

Activin A: a member of the TGFβ superfamily; R&D Systems; Group 2 = Activin A (100 ng/ml)
log intensity, bHLH factor Hes4 (LOC57801): 2.4 | log intensity, beta3GalNAcT-1 mRNA for globoside synthase, clone: type 2: −0.0984 | log intensity, bone morphogenetic protein 2 (BMP2): 5.029 | log intensity, bone morphogenetic protein 5 (BMP5): 0.6148 | log intensity, bromodomain and PHD finger containing, 3: 0.3694 | log intensity, c-mer proto-oncogene tyrosine kinase (MERTK): 3.617 | log intensity, cDNA FLJ11390 fis, clone HEMBA1000561: 0.3644 | log intensity, cDNA FLJ13221 fis, clone NT2RP4002075: 1.082 | log intensity, cDNA FLJ13392 fis, clone PLACE1001280: 1.169 | log intensity, cDNA FLJ13810 fis, clone THYRO1000279: −0.8532 | log intensity, cDNA FLJ30081 fis, clone BGGI12000693: 1.125 | log intensity, cDNA FLJ34035 fis, clone FCBBF2004788: −2.008 | log intensity, cDNA FLJ36116 fis, clone TESTI2022338: 6.155 | log intensity, cDNA: FLJ22731 fis, clone HSI15841: 2.241 | log intensity, cDNA: FLJ22808 fis, clone KAIA2925: 2.414 | log intensity, cDNA: FLJ23067 fis, clone LNG04993: 0.8825 | log intensity, calmegin (CLGN): 3.111 | log intensity, cardiac ankyrin repeat protein (CARP): 1.987 | log intensity, cartilage linking protein 1: 0.9872 | log intensity, caspase-like apoptosis regulatory protein 2 (clarp): 5.2167 | log intensity, chemokine receptor CXCR4 mRNA: 5.669 | log intensity, cleft lip and palate associated transmembrane protein 1, clone MGC: 10593: 0.5567 | log intensity, clone FLC1492 PRO3121 mRNA: −3.392 | log intensity, clone HB-2 mRNA sequence: 1.252 | log intensity, clone IMAGE: 3509274, mRNA, partial cds: 0.7945 | log intensity, clone IMAGE: 4047715, mRNA: 1.527 | log intensity, clone MGC: 14801: 1.511 | log intensity, clone MGC: 24252 IMAGE: 3932604: 1.593 | log intensity, clone TUA8 Cri-du-chat region mRNA: 1.497 | log intensity, collagen, type V, alpha 1: 1.666 | log intensity, complement component 5 (C5): 1.596 | log intensity, core histone macroH2A2.2 (MACROH2A2): 3.662 | log intensity, cystatin C (amyloid angiopathy and cerebral hemorrhage) (CST3): 3.52 | log intensity, deiodinase, iodothyronine, type III (DIO3): 4.229 | log intensity, dickkopf (Xenopus laevis) homolog 1 (DKK1): 1.09 | log intensity, dual specificity phosphatase 4, clone MGC: 3713: 5.601 | log intensity, dynein, axonemal, light polypeptide 4 (DNAL4): 1.8494 | log intensity, dystrophin (muscular dystrophy, Duchenne and Becker types) (DMD), transcript variant Dp427p2: 3.044 | log intensity, ectodermal dysplasia 1, anhidrotic (ED1): 3.078 | log intensity, elongation of very long chain fatty acids (FEN1Elo2, SUR4Elo3, yeast)-like 2 (ELOVL2): 1.508 | log intensity, endothelin receptor type A (EDNRA), mRNA: 3.552 | log intensity, endothelin receptor type A (r1027): 1.954 | log intensity, enolase 2, (gamma, neuronal) (ENO2): 3.926 | log intensity, eomesodermin (Xenopus laevis) homolog (EOMES): 4.898 | log intensity, erythrocyte membrane protein band 4.9 (dematin) (EPB49): 0.9238 | log intensity, fasciculation and elongation protein zeta 1 (zygin I) (FEZ1), transcript variant 1: 2.203 | log intensity, forkhead box F2 (FOXF2): −1.115 | log intensity, gelsolin (amyloidosis, Finnish type) (GSN): 4.45 | log intensity, glucose-6-phosphate transporter (G6PT) gene, G6PT-Dt allele: 0.4077 | log intensity, glutathione S-transferase A2 (GSTA2): −0.4221 | log intensity, glycoprotein M6A: 2.3278 | log intensity, guanylate cyclase activator 1B (retina) (GUCA1B): 0.685 | log intensity, heparan sulfate proteoglycan 2 (perlecan): −0.9721 | log intensity, hexabrachion (tenascin C, cytotactin) (HXB): 2.854 | log intensity, high mobility group protein-R: 0.09529 | log intensity, hypothetical protein BC017868 (LOC159091): 0.4016 | log intensity, hypothetical protein DKFZp434F0318: 0.3947 | log intensity, hypothetical protein DKFZp434F2322: 1.421 | log intensity, hypothetical protein DKFZp564B052: 2.003 | log intensity, hypothetical protein FLJ10312: 4.892 | log intensity, hypothetical protein FLJ11155: −0.7126 | log intensity, hypothetical protein FLJ11560: 1.807 | log intensity, hypothetical protein FLJ12538 similar to ras-related protein RAB17: 4.734 | log intensity, hypothetical protein FLJ12666 (r758): 1.405 | log intensity, hypothetical protein FLJ12666 (r998): 4.028 | log intensity, hypothetical protein FLJ12838: 3.152 | log intensity, hypothetical protein FLJ21195 similar to protein related to DAC and cerberus: 0.764 | log intensity, hypothetical protein FLJ22471: 3.1349 | log intensity, hypothetical protein FLJ23091: 3.042 | log intensity, hypothetical protein FLJ23514: 5.247 | log intensity, hypothetical protein FLJ32835: 3.947 | log intensity, hypothetical protein MGC2865, clone MGC: 20246: −1.506 | log intensity, insulin-like growth factor binding protein 6 (IGFBP6): 3.304 | log intensity, keratin 19 (KRT19): 5.919 | log intensity, kidney-specific membrane protein NX-17: 3.45 | log intensity, lipase mRNA: 0.5585 | log intensity, lymphocyte antigen 6 complex, locus E (LY6E): 4.926 | log intensity, mRNA for KIAA0876 protein: 0.07325 | log intensity, mRNA for KIAA1161 protein: 1.981 | log intensity, mRNA for MSX-2: 1.945 | log intensity, mRNA for protein-tyrosine kinase: 1.042 | log intensity, mRNA; cDNA DKFZp434E082: 2.943 | log intensity, mRNA; cDNA DKFZp434K0621: 2.214 | log intensity, mRNA; cDNA DKFZp434P228: 3.113 | log intensity, mRNA; cDNA DKFZp547H236: 2.081 | log intensity, mRNA; cDNA DKFZp564K1672: 6.335 | log intensity, mRNA; cDNA DKFZp586G2120: 0.523 | log intensity, mRNA; cDNA DKFZp586L0120: 1.28 | log intensity, mRNA; cDNA DKFZp762H185: 3.792 | log intensity, mandaselin long form: 1.2296 | log intensity, matrix metalloproteinase 15 (membrane-inserted) (MMP15): 1.8336 | log intensity, microseminoprotein, beta-(MSMB): 0.1699 | log intensity, mitogen-activated protein kinase 10 (MAPK10): 2.286 | log intensity, nuclear factor of kappa light polypeptide gene enhancer in B-cells inhibitor, alpha: 5.478 | log intensity, nuclear receptor subfamily 0, group B, member 1 (NR0B1) (r534): 1.279 | log intensity, nuclear receptor subfamily 0, group B, member 1 (NR0B1) (r1079): 3.298 | log intensity, nudix (nucleoside diphosphate linked moiety X)-type motif 4: 5.689 | log intensity, olfactory receptor, family 52, subfamily A, member 1 (OR52A1): 0.6365 | log intensity, oxoglutarate dehydrogenase (lipoamide) (OGDH): −0.3853 | log intensity, partial LHX9 gene for LIM-homeobox 9, 3UTR: −0.1342 | log intensity, partial mRNA for putative nuclear factor: 2.679 | log intensity, phosphatidylinositol-4-phosphate 5-kinase, type I, beta (PIP5K1B): 2.467 | log intensity, phosphofructokinase, liver (PFKL): 2.704 | log intensity, pilin-like transcription factor (PILB): 4.382 | log intensity, pleiomorphic adenoma gene-like 1: 0.2215 | log intensity, plexin A2: 2.742 | log intensity, polycythemia rubra vera 1; cell surface receptor (PRV1): 0.9374 | log intensity, porcupine (MG61): 3.681 | log intensity, protease, serine, 4 (trypsin 4, brain): 3.359 | log intensity, protein S (alpha) (PROS1): 1.7883 | log intensity, protocadherin 10: 2.986 | log intensity, putative 47 kDa protein (r448): 1.052 | log intensity, putative 47 kDa protein (r770): 0.8617 | log intensity, putative sterol reductase SR-1 (TM7SF2): 2.478 | log intensity, ras homolog gene family, member B: 0.07189 | log intensity, receptor tyrosine kinase-like orphan receptor 2 (ROR2): 3.056 | log intensity, regulator of G protein signalling 5 (RGS5): 3.951 | log intensity, ret finger protein-like 2 (RFPL2): 0.5039 | log intensity, secreted apoptosis related protein 2 (SARP2): 5.743 | log intensity, secreted frizzled-related protein 1: 4.218 | log intensity, sialyltransferase (STHM): 1.503 | log intensity, signal transducer and activator of transcription 3 (acute-phase response factor): 0.5602 | log intensity, singed (Drosophila)-like (sea urchin fascin homolog like) (SNL): 5.254 | log intensity, sodium dependent phosphate transporter isoform NaPi-IIb: 0.232 | log intensity, solute carrier (SLC25A18): −1.1 | log intensity, solute carrier family 9 (sodiumhydrogen exchanger), isoform 5 (SLC9A5): 1.196 | log intensity, stanniocalcin 1 (STC1), mRNA: 5.28 | log intensity, stanniocalcin 1 (r1113): 5.701 | log intensity, testican 3 (HSAJ1454): 1.551 | log intensity, testis enhanced gene transcript (BAX inhibitor 1): 1.317 | log intensity, thyrotropin-releasing hormone (TRH): −0.2584 | log intensity, transcription factor 2, hepatic; LF-B3; variant hepatic nuclear factor (TCF2), transcript variant a: 2.543 | log intensity, transcriptional activator of the c-fos promoter (CROC4): 3.225 | log intensity, transmembrane tyrosine kinase mRNA: 1.932 | log intensity, tropomodulin, clone MGC: 3643: 1.464 | log intensity, tryptase, alpha: 3.764 | log intensity, tudor repeat associator with PCTAIRE 2: 3.275 | log intensity, tyrosine 3-monooxygenasetryptophan 5-monooxygenase activation protein, eta polypeptide (r705): 4.608 | log intensity, tyrosine 3-monooxygenasetryptophan 5-monooxygenase activation protein, eta polypeptide (r966): 4.926
